The text below walks through data of patent US10004701B2, “Methods and compositions for treating infection” (UNIVERSITY OF ROCHESTER, priority 2012, dated 2018).

Common to all, as to test: AK assay 384-well format, Prestwick library screening
In one assay the test system is P. aeruginosa. In kind it is cell-based, Pseudomonas aeruginosa. The conditions noted are these: 50 μM final drug concentration; for fold induction at 50 µM: Pseudomonas aeruginosa, 3 h.
For a further assay, the system named is E. coli. In kind it is cell-based, Escherichia coli. The conditions noted are these: 50 μM final drug concentration; for fold induction at 50 µM: Escherichia coli, 3 h.
Another assay deals with E. faecium. In kind it is cell-based, Enterococcus faecium. The conditions noted are these: 50 μM final drug concentration; for fold induction at 50 µM: Enterococcus faecium, 3 h.
Assay [1] relates to A. baumannii strain 98-37-09. Type of assay: cell-based, Acinetobacter baumannii. The conditions noted are these: 50 μM final drug concentration; for fold induction at 50 µM: Acinetobacter baumannii, 983709, 3 h.
The subject of a further assay is K. pneumoniae. Type of assay: cell-based, Klebsiella pneumoniae. The conditions noted are these: 50 μM final drug concentration; for fold induction at 50 µM: Klebsiella pneumoniae, 3 h.
The test system of the next assay is E. cloacae. Type of assay: cell-based, Enterobacter cloacae. The conditions noted are these: 50 μM final drug concentration; for fold induction at 50 µM: Enterobacter cloacae, 3 h.
Assay [2] concerns S. aureus strain USA300-0114. Type of assay: cell-based, Staphylococcus aureus. The conditions noted are these: 50 μM final drug concentration; for fold induction at 50 µM: Staphylococcus aureus, USA300, 3 h.
The mark [3] stands for this setting: planktonic, cutoff for positive 3-fold increase, read-out: AK-based Prestwick Library Screening Results, P. aeruginosa (fold increase in extracellular AK activity).
The mark [4] stands for this setting: planktonic, cutoff for positive 3-fold increase, read-out: AK-based Prestwick Library Screening Results, E. coli (fold increase in extracellular AK activity).
[5] abbreviates: planktonic, cutoff for positive 3-fold increase, read-out: AK-based Prestwick Library Screening Results, E. faecium (fold increase in extracellular AK activity).
Where [6] appears, read: planktonic, cutoff for positive 3-fold increase, read-out: AK-based Prestwick Library Screening Results, A. baumannii (fold increase in extracellular AK activity).
The mark [7] stands for this setting: planktonic, cutoff for positive 3-fold increase, read-out: AK-based Prestwick Library Screening Results, K. pneumoniae (fold increase in extracellular AK activity).
The mark [8] stands for this setting: planktonic, cutoff for positive 3-fold increase, read-out: AK-based Prestwick Library Screening Results, E. cloacae (fold increase in extracellular AK activity).
The mark [9] stands for this setting: planktonic, cutoff for positive 3-fold increase, read-out: AK-based Prestwick Library Screening Results, S. aureus (fold increase in extracellular AK activity).
Where [10] appears, read: planktonic P. aeruginosa, positive cutoff 3-fold increase, read-out: AK-based Prestwick library screening result, P. aeruginosa (fold increase in extracellular AK activity).
Where [11] appears, read: planktonic E. coli, positive cutoff 3-fold increase, read-out: AK-based Prestwick library screening result, E. coli (fold increase in extracellular AK activity).
[12] abbreviates: planktonic E. faecium, positive cutoff 3-fold increase, read-out: AK-based Prestwick library screening result, E. faecium (fold increase in extracellular AK activity).
[13] abbreviates: planktonic A. baumannii, positive cutoff 3-fold increase, read-out: AK-based Prestwick library screening result, A. baumannii (fold increase in extracellular AK activity).
[14] abbreviates: planktonic K. pneumoniae, positive cutoff 3-fold increase, read-out: AK-based Prestwick library screening result, K. pneumoniae (fold increase in extracellular AK activity).
[15] abbreviates: planktonic E. cloacae, positive cutoff 3-fold increase, read-out: AK-based Prestwick library screening result, E. cloacae (fold increase in extracellular AK activity).
Where [16] appears, read: planktonic S. aureus, positive cutoff 3-fold increase, read-out: AK-based Prestwick library screening result, S. aureus (fold increase in extracellular AK activity).

Structures can show the parent of a compound that is named as a salt. Where two headings read alike, the source gives them in different places.

With `CC(=O)Nc1c(I)c(C(=O)N[C@H]2C(O)O[C@H](CO)[C@@H](O)[C@@H]2O)c(I)c(N(C)C(C)=O)c1I` (stereo partly drawn) [Metrizamide], the fold induction at 50 µM with P. aeruginosa (setting [3]) was 1.2; in the assay with E. coli (setting [4]), 1.2; with E. faecium (setting [5]) it was 1; in assay [1] (setting [6]), 1.3; in the assay with K. pneumoniae (setting [7]), 1; in the assay on E. cloacae (setting [8]), 1.3. Besides, the fold induction at 50 µM in assay [2] (setting [9]) was 1.2.

In the case of Colistin sulfate, the “AK-based Prestwick Library Screening Results, P. aeruginosa (increase in extracellular AK activity)” value with P. aeruginosa (planktonic P. aeruginosa, […]) is listed as 23.6. The “AK-based Prestwick Library Screening Results, E. coli (increase in extracellular AK activity)” value with E. coli (planktonic E. coli, […]) is listed as 42.2. In addition, the “AK-based Prestwick Library Screening Results, E. faecium (increase in extracellular AK activity)” value in the assay with E. faecium (planktonic E. faecium, […]) was determined as 1.0. Also, in assay [1] (planktonic A. baumannii, […]), the “AK-based Prestwick Library Screening Results, A. baumannii (increase in extracellular AK activity)” value amounted to 10.0. Besides, the “AK-based Prestwick Library Screening Results, K. pneumoniae (increase in extracellular AK activity)” value in the assay with K. pneumoniae (planktonic K. pneumoniae, […]) is recorded as 24.1. Also, in the assay on E. cloacae (planktonic E. cloacae, […]), the “AK-based Prestwick Library Screening Results, E. cloacae (increase in extracellular AK activity)” value worked out at 0.7. In addition, the “AK-based Prestwick Library Screening Results, S. aureus (increase in extracellular AK activity)” value in assay [2] (planktonic S. aureus, […]) stood at 0.6.

With `O=C(O)CCc1nc(-c2ccccc2)c(-c2ccccc2)o1` [Oxaprozin], the fold induction at 50 µM with P. aeruginosa (setting [10]) was found to be 0.7; in the assay with E. coli (setting [11]) it was 0.6; in the assay on E. faecium (setting [12]) it was 1.1; in assay [1] (setting [13]) it was 0.7; with K. pneumoniae (setting [14]) it was 0.6; in the assay with E. cloacae (setting [15]), 0.9. In addition, the fold induction at 50 µM in assay [2] (setting [16]) was 0.5.

In the case of `Cc1cccc(Nc2ccncc2S(=O)(=O)NC(=O)NC(C)C)c1` [Torsemide], the fold induction at 50 µM with P. aeruginosa (setting [10]) came to 1.1; in the assay on E. coli (setting [11]), 1.1; in the assay on E. faecium (setting [12]), 1; in assay [1] (setting [13]), 1.6; with K. pneumoniae (setting [14]) it was 1.3; in the assay with E. cloacae (setting [15]), 1.4. Further, in assay [2] (setting [16]), the fold induction at 50 µM turned out to be 1.5.

In the case of `CN1CCCC(CC2c3ccccc3Sc3ccccc32)C1` (stereo not drawn) [Metixene hydrochloride], the fold induction at 50 µM was 0.8 with P. aeruginosa (planktonic P. aeruginosa, cutoff for positive-scoring molecules 3-fold increase, read-out: AK-based Prestwick Library Screening Results, P. aeruginosa (increase in extracellular AK activity)); 0.9 with E. coli (planktonic E. coli, cutoff for positive-scoring molecules 3-fold increase, read-out: AK-based Prestwick Library Screening Results, E. coli (increase in extracellular AK activity)); 1 in the assay on E. faecium (planktonic E. faecium, cutoff for positive-scoring molecules 3-fold increase, read-out: AK-based Prestwick Library Screening Results, E. faecium (increase in extracellular AK activity)); 1 in assay [1] (planktonic A. baumannii, cutoff for positive-scoring molecules 3-fold increase, read-out: AK-based Prestwick Library Screening Results, A. baumannii (increase in extracellular AK activity)); 0.8 in the assay on K. pneumoniae (planktonic K. pneumoniae, cutoff for positive-scoring molecules 3-fold increase, read-out: AK-based Prestwick Library Screening Results, K. pneumoniae (increase in extracellular AK activity)); 0.8 in the assay with E. cloacae (planktonic E. cloacae, cutoff for positive-scoring molecules 3-fold increase, read-out: AK-based Prestwick Library Screening Results, E. cloacae (increase in extracellular AK activity)). The fold induction at 50 µM in assay [2] (planktonic S. aureus, cutoff for positive-scoring molecules 3-fold increase, read-out: AK-based Prestwick Library Screening Results, S. aureus (increase in extracellular AK activity)) stood at 0.7.

On to `CC(=O)Nc1cc2ccccc2oc1=O` [Compound 3-Acetamidocoumarin, 3-Acetamidocoumarin], for which the fold induction at 50 µM in the assay on P. aeruginosa (cutoff for positive-scoring molecules 3-fold increase, read-out: AK-based Prestwick Library Screening Results, P. aeruginosa (fold increase in extracellular AK activity)) turned out to be 0.4; with E. coli (cutoff for positive-scoring molecules 3-fold increase, read-out: AK-based Prestwick Library Screening Results, E. coli (fold increase in extracellular AK activity)), 0.5; with E. faecium (cutoff for positive-scoring molecules 3-fold increase, read-out: AK-based Prestwick Library Screening Results, E. faecium (fold increase in extracellular AK activity)), 0.8; in assay [1] (cutoff for positive-scoring molecules 3-fold increase, read-out: AK-based Prestwick Library Screening Results, A. baumannii (fold increase in extracellular AK activity)), 0.4; with K. pneumoniae (cutoff for positive-scoring molecules 3-fold increase, read-out: AK-based Prestwick Library Screening Results, K. pneumoniae (fold increase in extracellular AK activity)) it was 0.4; in the assay with E. cloacae (cutoff for positive-scoring molecules 3-fold increase, read-out: AK-based Prestwick Library Screening Results, E. cloacae (fold increase in extracellular AK activity)) it was 0.4. In assay [2] (cutoff for positive-scoring molecules 3-fold increase, read-out: AK-based Prestwick Library Screening Results, S. aureus (fold increase in extracellular AK activity)), the fold induction at 50 µM turned out to be 0.4.

In the case of `CCOc1ccc(NC(C)=O)cc1` [Phenacetin], the fold induction at 50 µM turned out to be 0.9 in the assay on P. aeruginosa (setting [3]); 1.2 in the assay with E. coli (setting [4]); 0.9 in the assay with E. faecium (setting [5]); 1.1 in assay [1] (setting [6]); 0.9 in the assay on K. pneumoniae (setting [7]); 1.4 with E. cloacae (setting [8]). For the same compound, in assay [2] (setting [9]), the fold induction at 50 µM came to 0.8.

As to `C[C@]12CC[C@@H]3c4ccc(O)cc4CC[C@H]3[C@@H]1CCC2=O` [Estrone], the fold induction at 50 µM with P. aeruginosa (planktonic, cutoff for positive-scoring molecules 3-fold increase, read-out: AK-based Prestwick Library Screening Results, P. aeruginosa (fold increase in extracellular AK activity)) stood at 0.8; in the assay on E. coli (planktonic, cutoff for positive-scoring molecules 3-fold increase, read-out: AK-based Prestwick Library Screening Results, E. coli (fold increase in extracellular AK activity)) it was 0.8; with E. faecium (planktonic, cutoff for positive-scoring molecules 3-fold increase, read-out: AK-based Prestwick Library Screening Results, E. faecium (fold increase in extracellular AK activity)) it was 0.8; in assay [1] (planktonic, cutoff for positive-scoring molecules 3-fold increase, read-out: AK-based Prestwick Library Screening Results, A. baumannii (fold increase in extracellular AK activity)), 0.8; in the assay on K. pneumoniae (planktonic, cutoff for positive-scoring molecules 3-fold increase, read-out: AK-based Prestwick Library Screening Results, K. pneumoniae (fold increase in extracellular AK activity)), 0.7; with E. cloacae (planktonic, cutoff for positive-scoring molecules 3-fold increase, read-out: AK-based Prestwick Library Screening Results, E. cloacae (fold increase in extracellular AK activity)) it was 1.4. Further, the fold induction at 50 µM in assay [2] (planktonic, cutoff for positive-scoring molecules 3-fold increase, read-out: AK-based Prestwick Library Screening Results, S. aureus (fold increase in extracellular AK activity)) came out at 0.7.

Take `CCCN(CCC)S(=O)(=O)c1ccc(C(=O)O)cc1` [Probenecid]: the fold induction at 50 µM was determined as 1.2 with P. aeruginosa (setting [3]); 1.4 with E. coli (setting [4]); 1 in the assay on E. faecium (setting [5]); 1.3 in assay [1] (setting [6]); 1.1 in the assay on K. pneumoniae (setting [7]); 1.4 in the assay on E. cloacae (setting [8]). In addition, in assay [2] (setting [9]), the fold induction at 50 µM was 1.
